Test results published in publication PMC7329864, “Role of water in cyclooxygenase catalysis and design of anti-inflammatory agents targeting two sites of the enzyme” (Scientific Reports, 2020).
pIC50: −log10 of the molar value. Like-named read-outs stand apart in the source and are kept apart here.

Assays:
[1] = molecular target: T1, wt COX-2 (Homo sapiens, UniProt P35354); test: COX inhibitory enzyme immunoassay (COX-2); format: biochemical
T1 construct: purchased Cayman Chemical Co. item no; 560131
T1 sequence (P35354 18-604): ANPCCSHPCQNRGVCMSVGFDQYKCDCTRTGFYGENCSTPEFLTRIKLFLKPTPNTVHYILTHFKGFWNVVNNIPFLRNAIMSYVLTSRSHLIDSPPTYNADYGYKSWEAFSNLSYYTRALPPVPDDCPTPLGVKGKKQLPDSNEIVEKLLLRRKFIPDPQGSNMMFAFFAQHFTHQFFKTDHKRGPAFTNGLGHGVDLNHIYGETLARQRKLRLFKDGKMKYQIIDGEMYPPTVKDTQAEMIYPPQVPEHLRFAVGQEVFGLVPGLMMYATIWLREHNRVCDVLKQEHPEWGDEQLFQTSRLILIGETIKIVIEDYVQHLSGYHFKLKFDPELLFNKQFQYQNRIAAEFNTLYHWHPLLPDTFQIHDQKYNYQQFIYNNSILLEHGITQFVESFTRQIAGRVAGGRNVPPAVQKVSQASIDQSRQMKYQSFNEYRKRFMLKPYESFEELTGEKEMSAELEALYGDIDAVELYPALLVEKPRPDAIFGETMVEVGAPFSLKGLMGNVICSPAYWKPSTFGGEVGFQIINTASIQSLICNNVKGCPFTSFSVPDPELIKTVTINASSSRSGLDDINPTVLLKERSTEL
Procedure: (§1) All the compounds of Fig. 9 were screened for COX-1/2 inhibitory activity in triplicate at 10^–4–10^–8 M concentration by performing enzyme immunoassays. The activity of the compounds was quantified in terms of amount of prostaglandins produced by the enzymes in the presence of different concentrations of the compound.
(§2) For studying the COX-1, COX-2 inhibitory activities of the compounds, various reagents were prepared as per the protocol of the assays. The compounds were screened in triplicate at 10^–4–10^–8 M concentration using the procedure as described in the previous report.

[2] = molecular target: T2, COX-1 (Ovis aries, UniProt P05979); test: COX inhibitory enzyme immunoassay (COX-1); format: biochemical
T2 construct: purchased Cayman Chemical Co. item no; 560131
T2 sequence (P05979 25-600): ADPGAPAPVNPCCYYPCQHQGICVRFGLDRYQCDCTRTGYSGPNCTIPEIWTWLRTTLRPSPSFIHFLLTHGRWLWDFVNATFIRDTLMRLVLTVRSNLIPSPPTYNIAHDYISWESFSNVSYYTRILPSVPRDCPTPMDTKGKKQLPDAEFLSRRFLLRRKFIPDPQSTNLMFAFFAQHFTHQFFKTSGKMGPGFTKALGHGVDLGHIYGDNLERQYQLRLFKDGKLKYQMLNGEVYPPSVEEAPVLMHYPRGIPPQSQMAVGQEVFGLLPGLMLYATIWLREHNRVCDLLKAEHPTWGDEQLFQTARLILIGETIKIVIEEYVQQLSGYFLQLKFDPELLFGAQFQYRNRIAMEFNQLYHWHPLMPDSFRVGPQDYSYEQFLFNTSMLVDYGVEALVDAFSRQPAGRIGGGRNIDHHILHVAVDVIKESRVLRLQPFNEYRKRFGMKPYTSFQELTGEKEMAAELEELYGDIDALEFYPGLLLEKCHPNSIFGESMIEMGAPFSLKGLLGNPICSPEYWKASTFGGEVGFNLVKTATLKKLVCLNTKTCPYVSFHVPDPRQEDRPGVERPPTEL
Procedure: as §1, §2

[3] = tested on: Swiss albino mice; test: Carageenan induced paw edema, anti-inflammatory activity; format: in vivo
Procedure: Since it is known to produce biphasic pain response—the neurogenic pain and the inflammatory phase, 2% formalin injection was given in the right hind paw of the animals (20 µL) and the response was quantified by counting the number of flinching after 30 min of the compound 1 treatment. The inflammatory phase has been reported in the current investigation since the cyclooxygenase inhibitors are known to ameliorate the latter phase. The involvement of cyclooxygenase and lipooxygenase pathways was studied by pretreatment with substance P and nitric oxide pathway was studied by pretreatment with L-arginine and L-NAME as previously described. Anti-inflammatory activity was examined by using carageenan induced paw edema as per the previous report.
Swiss albino mice of either sex (25–35 g) were used for determining the analgesic and anti-inflammatory activity of the compounds. The animals were maintained at 22 ± 2 °C under 12 h light/12 h dark cycle with free supply of food and water. The study was approved by the IAEC of Guru Nanak Dev University, Amritsar, Punjab, India. A total of six groups of animals with 5 animals in each group were used. The experimental procedure as described in our previous report[52],[57] was used for studying the analgesic and anti-inflammatory activity of the compounds. All the treatments were given intraperitoneally (i.p.).

[4] = Acute toxicity studies; format: in vivo
Procedure: (§3) Acute toxicity studies of 1 were carried out at 3 dose levels of 50 mg Kg^−1, 300 mg Kg^−1 and 2000 mg Kg^−1 by periodic monitoring for the first 24 h and daily monitoring for 14 days[56]. […] A few jumping movements were also observed. However, all these behaviours subsided after 60 min. […] Therefore, complying with the design and the results of in vitro studies, the in vivo experiments were gestured with the emergence of a new category of anti-inflammatory agents.
Acute Toxicity Studies[56]. Four groups of animals with three animals per group were taken. The first group was administered the vehicle and served as the control group, the second, third and the fourth groups were treated with 1 at doses of 50 mg Kg^−1, 300 mg Kg^−1 and 2000 mg Kg^−1, respectively. All the treatments were administered after 4 h of fasting. Thereafter, the animals were observed continuously for the first four hours and periodically for 24 h. After 14 days, one animal each in control and highest dose of 1 (2000 mg Kg^−1) was sacrificed and histological studies were conducted using H and E staining.
[56] OECD Guideline for testing of chemicals, 2001. Guideline 423: acute oral toxicity- acute toxic class method, 2001.

[5] = In-vivo pharmacokinetic studies
Procedure: as §3
In-vivo Pharmacokinetic studies were performed as per the previously reported protocol.

## O=C1NC(=O)C(=Cc2cn(CCCCCCn3c4ccccc4c(=O)c4ccccc43)c3ccccc23)C(=O)N1 [Compound 1]
[1]; enzyme immunoassay, screened at 10^–4–10^–8 M, average of 3 experiments, SD ± 0.5 µM
  pIC50: 7.22
[1]; selectivity index COX-1/COX-2
  SI (IC50(COX-1)/IC50 (COX-2): 1,000
[2]
  pIC50: 4.22
[3]
  reversal of carageenan induced inflammation: 90%
[3]; i.p., comparable to indomethacin
  paw volume after carageenan injection: significant decrease
[4]; 2000 mg Kg^−1, after 14 days, H and E staining, a few areas of congestion in myocardium and kidney
  histological examination of liver, kidney and myocardium: grossly unremarkable
[4]; 50, 300 and 2000 mg Kg^−1, oral, 14 days of observation
  mortality in acute toxicity study: No mortality
[4]; first 60 min after oral administration, subsided after 60 min
  behavioural observations in acute toxicity study: excessive licking, sniffing, grooming and restless movements
[5]; Animal 1
  Cmax: 3150 nM
  Tmax: 0.5 h
[5]; Animal 1, read-out: AUC(0–1440 min) (converted)
  AUC(0-t): 21.4 µM·h
[5]; Animal 1, read-out: T1/2
  half-life: 11.2 h
[5]; Animal 2
  Cmax: 2860 nM
  Tmax: 0.25 h
[5]; Animal 2, read-out: AUC(0–1440 min) (converted)
  AUC(0-t): 19.7 µM·h
[5]; Animal 2, read-out: T1/2
  half-life: 6.96 h
[5]; Animal 3
  Cmax: 2600 nM
  Tmax: 0.5 h
[5]; Animal 3, read-out: AUC(0–1440 min) (converted)
  AUC(0-t): 20.2 µM·h
[5]; Animal 3, read-out: T1/2
  half-life: 8.68 h
[5]; Mean
  Tmax: 0.417 h
[5]; Mean, read-out: AUC(0–1440 min) (converted)
  AUC(0-t): 20.4 µM·h
[5]; Mean, read-out: T1/2
  half-life: 8.95 h
[5]; read-out: half life (T1/2) (converted)
  half-life: ~9 h
